The source of these data is publication PMC10382584, “Macrocyclization of linear molecules by deep learning to facilitate macrocyclic drug candidates discovery” (Nature Communications, 2023).

Test in all cases: biochemical
What all share (set-up): DiscoveRx KINOMEscan competition binding, percent of DMSO control signal at 100 nM
Common to all, as to conditions: read-out: Fig. 4a / Percent Control / Compound 1; percent of DMSO control, competition binding

The target of assay [1] is T1, ABL1(M351T)-phosphorylated (Homo sapiens, UniProt P00519, M351T).
T1 construct: phosphorylated

The target of assay [2] is T2, ABL1(Q252H)-phosphorylated (Homo sapiens, UniProt P00519, Q252H).
T2 construct: phosphorylated

Assay [3] deals with ACVR1 (Homo sapiens, UniProt Q04771).
Assay [4] deals with T3, AMPK-alpha1 (Homo sapiens, UniProt Q13131).
T3 construct: gene PRKAA1

The target in assay [5] is CSNK1G2 (Homo sapiens, UniProt P78368).
The target in assay [6] is EGFR(L747-S752del, P753S) (Homo sapiens, UniProt P00533, DEL747-752/P753S).
Assay [7] has as its target EPHA3 (Homo sapiens, UniProt P29320).
The target in assay [8] is EPHA4 (Homo sapiens, UniProt P54764).
In assay [9] the target is FLT3-autoinhibited (Homo sapiens, UniProt P36888).
Assay [10] concerns the target HASPIN (Homo sapiens, UniProt Q8TF76).
In assay [11] the target is IRAK3 (Homo sapiens, UniProt Q9Y616).
Chain of IRAK3 (Q9Y616 whole entry): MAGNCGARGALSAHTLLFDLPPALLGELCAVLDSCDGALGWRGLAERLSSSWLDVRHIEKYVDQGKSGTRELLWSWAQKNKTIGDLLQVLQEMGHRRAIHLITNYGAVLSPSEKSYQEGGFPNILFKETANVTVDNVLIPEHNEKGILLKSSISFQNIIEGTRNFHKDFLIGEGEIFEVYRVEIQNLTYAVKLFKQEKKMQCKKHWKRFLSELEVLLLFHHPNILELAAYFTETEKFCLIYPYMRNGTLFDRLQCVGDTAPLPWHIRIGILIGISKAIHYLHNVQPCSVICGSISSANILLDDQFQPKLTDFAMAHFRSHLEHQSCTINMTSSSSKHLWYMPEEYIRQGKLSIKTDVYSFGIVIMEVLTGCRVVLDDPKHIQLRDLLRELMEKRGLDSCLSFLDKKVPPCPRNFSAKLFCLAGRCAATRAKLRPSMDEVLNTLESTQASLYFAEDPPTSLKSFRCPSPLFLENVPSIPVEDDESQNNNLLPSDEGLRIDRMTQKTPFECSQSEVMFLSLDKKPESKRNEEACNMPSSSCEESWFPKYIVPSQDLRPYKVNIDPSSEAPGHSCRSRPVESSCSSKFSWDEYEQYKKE
Assay [12] has as its target LATS1 (Homo sapiens, UniProt O95835).
For assay [13], the target named is LIMK1 (Homo sapiens, UniProt P53667).
For assay [14], the target named is T4, PCTK3 (Homo sapiens, UniProt Q07002).
T4 construct: gene CDK18

Assay [15] deals with PIM1 (Homo sapiens, UniProt P11309).
For assay [16], the target named is T5, PKAC-alpha (Homo sapiens, UniProt P17612).
T5 construct: gene PRKACA

The target of assay [17] is PRKCQ (Homo sapiens, UniProt Q04759).
The target in assay [18] is T6, RPS6KA5(Kin.Dom.1-N-terminal) (Homo sapiens, UniProt O75582).
T6 construct: Kin.Dom.1-N-terminal

For assay [19], the target named is T7, RSK2(Kin.Dom.2-C-terminal) (Homo sapiens, UniProt P51812).
T7 construct: gene RPS6KA3; Kin.Dom.2-C-terminal
T7 sequence (P51812 whole entry): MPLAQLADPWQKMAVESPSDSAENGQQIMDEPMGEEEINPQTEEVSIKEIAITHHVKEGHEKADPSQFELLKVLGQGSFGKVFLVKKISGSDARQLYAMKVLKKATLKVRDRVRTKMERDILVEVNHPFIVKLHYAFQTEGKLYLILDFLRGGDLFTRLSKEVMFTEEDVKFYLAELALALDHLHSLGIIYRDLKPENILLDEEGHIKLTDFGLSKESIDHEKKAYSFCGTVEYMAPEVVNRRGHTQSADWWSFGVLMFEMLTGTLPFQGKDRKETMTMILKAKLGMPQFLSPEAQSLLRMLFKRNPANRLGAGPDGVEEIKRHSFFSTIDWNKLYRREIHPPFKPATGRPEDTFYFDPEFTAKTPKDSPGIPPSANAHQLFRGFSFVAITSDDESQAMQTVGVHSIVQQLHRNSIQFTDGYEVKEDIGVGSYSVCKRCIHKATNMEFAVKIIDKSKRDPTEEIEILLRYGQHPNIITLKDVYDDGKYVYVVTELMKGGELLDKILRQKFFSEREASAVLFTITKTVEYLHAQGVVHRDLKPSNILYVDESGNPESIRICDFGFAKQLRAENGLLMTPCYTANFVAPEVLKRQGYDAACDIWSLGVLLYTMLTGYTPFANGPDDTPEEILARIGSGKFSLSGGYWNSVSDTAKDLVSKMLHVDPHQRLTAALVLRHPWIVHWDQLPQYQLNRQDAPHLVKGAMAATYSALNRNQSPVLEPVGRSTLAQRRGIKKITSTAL

Assay [20] addresses SGK2 (Homo sapiens, UniProt Q9HBY8).
Assay [21] deals with T8, SIK (Homo sapiens, UniProt P57059).
T8 construct: gene SIK1
T8 sequence (P57059 whole entry): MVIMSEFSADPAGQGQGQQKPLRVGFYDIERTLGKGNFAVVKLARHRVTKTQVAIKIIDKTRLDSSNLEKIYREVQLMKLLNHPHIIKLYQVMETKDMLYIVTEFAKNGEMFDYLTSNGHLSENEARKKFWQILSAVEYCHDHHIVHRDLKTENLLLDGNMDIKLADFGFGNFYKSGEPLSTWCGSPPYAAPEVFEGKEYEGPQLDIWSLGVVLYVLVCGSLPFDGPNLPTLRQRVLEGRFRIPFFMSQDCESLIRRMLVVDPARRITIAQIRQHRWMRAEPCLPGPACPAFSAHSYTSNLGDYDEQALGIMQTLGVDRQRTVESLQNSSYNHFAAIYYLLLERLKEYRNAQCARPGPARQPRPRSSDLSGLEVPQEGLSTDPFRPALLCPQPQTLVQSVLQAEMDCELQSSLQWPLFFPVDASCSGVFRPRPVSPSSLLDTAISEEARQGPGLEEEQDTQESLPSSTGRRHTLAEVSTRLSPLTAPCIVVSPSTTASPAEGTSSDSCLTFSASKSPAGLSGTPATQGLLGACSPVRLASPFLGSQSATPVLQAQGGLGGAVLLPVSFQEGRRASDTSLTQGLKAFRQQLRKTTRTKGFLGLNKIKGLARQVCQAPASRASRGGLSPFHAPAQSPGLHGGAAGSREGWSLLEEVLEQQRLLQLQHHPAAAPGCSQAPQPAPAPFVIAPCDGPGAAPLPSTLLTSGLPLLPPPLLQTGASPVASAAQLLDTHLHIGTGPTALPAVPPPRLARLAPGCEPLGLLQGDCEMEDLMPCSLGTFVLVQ

Assay [22] addresses TAOK2 (Homo sapiens, UniProt Q9UL54).
For assay [23], the target named is TESK1 (Homo sapiens, UniProt Q15569).
Chain of TESK1 (Q15569 whole entry): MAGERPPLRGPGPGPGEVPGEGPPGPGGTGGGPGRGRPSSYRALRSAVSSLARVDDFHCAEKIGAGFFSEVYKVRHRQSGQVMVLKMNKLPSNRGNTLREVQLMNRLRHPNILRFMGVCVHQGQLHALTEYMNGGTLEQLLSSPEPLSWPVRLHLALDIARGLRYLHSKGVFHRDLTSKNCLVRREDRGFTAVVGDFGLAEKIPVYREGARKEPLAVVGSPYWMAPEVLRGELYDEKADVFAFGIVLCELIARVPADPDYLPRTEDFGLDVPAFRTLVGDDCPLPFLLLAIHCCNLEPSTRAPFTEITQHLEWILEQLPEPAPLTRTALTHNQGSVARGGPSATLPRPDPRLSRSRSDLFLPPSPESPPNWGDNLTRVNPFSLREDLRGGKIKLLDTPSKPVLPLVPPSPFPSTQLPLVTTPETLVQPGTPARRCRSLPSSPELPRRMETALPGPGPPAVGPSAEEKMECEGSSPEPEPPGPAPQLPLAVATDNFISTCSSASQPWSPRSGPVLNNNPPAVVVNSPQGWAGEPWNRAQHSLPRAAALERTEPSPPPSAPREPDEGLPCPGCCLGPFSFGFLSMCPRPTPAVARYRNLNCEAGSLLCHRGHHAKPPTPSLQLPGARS
Assay [24] has as its target T9, p38-beta (Homo sapiens, UniProt Q15759).
T9 construct: gene MAPK11

Each structure is given as a SMILES string.
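Also: KINOMEscan kinase panel binding assay, signal normalized between DMSO as 100% and a positive control compound as 0%.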

Chain of TAOK2 (Q9UL54 whole entry): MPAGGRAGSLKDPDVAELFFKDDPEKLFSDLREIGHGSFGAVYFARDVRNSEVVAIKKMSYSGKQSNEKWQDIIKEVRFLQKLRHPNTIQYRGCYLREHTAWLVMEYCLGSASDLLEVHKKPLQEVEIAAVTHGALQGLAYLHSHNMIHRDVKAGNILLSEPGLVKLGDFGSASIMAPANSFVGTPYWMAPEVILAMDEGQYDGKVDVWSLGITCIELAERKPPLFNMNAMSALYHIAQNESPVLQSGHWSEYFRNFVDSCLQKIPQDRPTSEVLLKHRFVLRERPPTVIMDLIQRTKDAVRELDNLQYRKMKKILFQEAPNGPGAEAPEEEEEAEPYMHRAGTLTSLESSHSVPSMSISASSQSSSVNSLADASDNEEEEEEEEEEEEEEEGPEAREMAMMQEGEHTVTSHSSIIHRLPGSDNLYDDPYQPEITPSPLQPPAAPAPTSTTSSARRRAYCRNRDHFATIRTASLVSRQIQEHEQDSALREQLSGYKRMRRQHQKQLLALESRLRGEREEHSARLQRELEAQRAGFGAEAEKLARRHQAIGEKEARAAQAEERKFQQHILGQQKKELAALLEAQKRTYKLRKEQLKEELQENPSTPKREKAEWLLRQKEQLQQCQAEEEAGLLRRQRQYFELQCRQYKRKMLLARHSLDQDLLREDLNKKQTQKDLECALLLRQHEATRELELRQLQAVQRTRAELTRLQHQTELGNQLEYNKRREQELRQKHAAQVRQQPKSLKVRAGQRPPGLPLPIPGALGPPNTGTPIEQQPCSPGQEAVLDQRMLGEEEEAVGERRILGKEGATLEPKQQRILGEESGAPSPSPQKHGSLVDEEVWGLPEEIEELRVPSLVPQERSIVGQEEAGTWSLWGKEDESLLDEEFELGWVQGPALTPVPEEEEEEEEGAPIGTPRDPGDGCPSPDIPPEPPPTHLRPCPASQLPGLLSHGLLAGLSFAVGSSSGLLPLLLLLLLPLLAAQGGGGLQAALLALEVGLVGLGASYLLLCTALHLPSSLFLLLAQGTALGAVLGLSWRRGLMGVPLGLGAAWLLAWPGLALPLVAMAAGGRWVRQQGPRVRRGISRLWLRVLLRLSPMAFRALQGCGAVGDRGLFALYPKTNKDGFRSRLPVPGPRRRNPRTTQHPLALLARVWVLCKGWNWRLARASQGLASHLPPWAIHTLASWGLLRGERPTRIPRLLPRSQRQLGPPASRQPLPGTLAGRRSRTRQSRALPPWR
Chain of HASPIN (Q8TF76 whole entry): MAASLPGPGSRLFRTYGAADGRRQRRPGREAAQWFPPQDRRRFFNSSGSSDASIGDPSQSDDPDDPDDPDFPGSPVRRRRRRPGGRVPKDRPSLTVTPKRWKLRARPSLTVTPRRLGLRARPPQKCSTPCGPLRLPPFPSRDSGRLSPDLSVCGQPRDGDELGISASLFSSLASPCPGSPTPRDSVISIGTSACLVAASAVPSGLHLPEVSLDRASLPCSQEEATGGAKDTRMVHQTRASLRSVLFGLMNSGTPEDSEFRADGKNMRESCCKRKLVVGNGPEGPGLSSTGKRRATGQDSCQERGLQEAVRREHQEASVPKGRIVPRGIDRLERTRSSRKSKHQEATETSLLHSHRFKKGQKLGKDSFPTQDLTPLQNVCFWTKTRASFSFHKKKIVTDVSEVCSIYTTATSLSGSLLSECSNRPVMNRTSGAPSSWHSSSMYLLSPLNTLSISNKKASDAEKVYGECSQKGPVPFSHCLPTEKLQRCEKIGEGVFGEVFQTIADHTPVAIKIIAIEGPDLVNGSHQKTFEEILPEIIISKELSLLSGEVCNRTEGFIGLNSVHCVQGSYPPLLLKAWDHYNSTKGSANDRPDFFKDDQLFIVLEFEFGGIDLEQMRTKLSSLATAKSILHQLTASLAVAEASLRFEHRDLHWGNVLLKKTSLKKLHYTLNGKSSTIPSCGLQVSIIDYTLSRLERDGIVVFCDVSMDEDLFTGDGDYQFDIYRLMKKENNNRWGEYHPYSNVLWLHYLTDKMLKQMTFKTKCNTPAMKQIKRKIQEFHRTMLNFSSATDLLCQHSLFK

For `Cc1cnc2nc1Nc1cccc(c1)COCc1cc(ccc1OCCN1CCCC1)N2` [Compound 1], the remaining binding at 0.1 µM in assay [1] was found to be 63%; in assay [2], 59%; in assay [3], 92%; in assay [4], 100%; in assay [5], 99%; in [6] it was 80%. Besides, the remaining binding at 0.1 µM in assay [7] was determined as 85%; in [8], 100%; in assay [9], 48%; in assay [10], 79%; in [11], 53%; in [12], 100%. Also, the remaining binding at 0.1 µM in [13] turned out to be 88%; in [14] it was 85%; in [15], 100%; in [16] it was 99%; in assay [17], 100%; in [18], 83%. The remaining binding at 0.1 µM in assay [19] is 87%; in assay [20], 97%; in [21], 100%; in assay [22], 63%; in assay [23] it was 85%; in assay [24] it was 86%.
